Assay results reported in patent US5616684A, “Cyclic peptides and use thereof” (priority 1991, dated 1997).
Non-standard residues stand in square brackets, D forms with d. Residues, ends and D or L forms follow the SMILES beside them. *: point of attachment. NMeW = CN[C@@H](Cc1c[nH]c2ccccc12)C(=O)O; NMeF = CN[C@@H](Cc1ccccc1)C(=O)O; dTle = CC(C)(C)[C@@H](N)C(=O)O; NMeL = CN[C@@H](CC(C)C)C(=O)O; X3 = O=C(Cc1c[nH]c2ccccc12)*; Orn = NCCC[C@H](N)C(=O)O; PhAc = O=C(Cc1ccccc1)*; Sar = CNCC(=O)O

Tests used:
[1] = target: T1, endothelin receptor A (ETA) (Sus scrofa, UniProt Q29010); assay: Assay of Affinity for Receptor (1): Binding Activity on ETA Receptor; parameters: key to Binding Activity on ET Receptor (R. act.) ETA: relative binding activity; reference cyclic pentapeptide = 1.0; conditions: specific activity, binding activity of cyclo[-D-Glu-Ala-D-aIle-Leu-D-Trp-] taken as 1.0; porcine heart membrane fraction, 125I-labeled endothelin-1, 25° C., 1 hour
T1 construct: A membrane fraction prepared from the porcine heart; from tissue; host or cells: porcine heart membrane fraction
T1 sequence (Q29010 21-427): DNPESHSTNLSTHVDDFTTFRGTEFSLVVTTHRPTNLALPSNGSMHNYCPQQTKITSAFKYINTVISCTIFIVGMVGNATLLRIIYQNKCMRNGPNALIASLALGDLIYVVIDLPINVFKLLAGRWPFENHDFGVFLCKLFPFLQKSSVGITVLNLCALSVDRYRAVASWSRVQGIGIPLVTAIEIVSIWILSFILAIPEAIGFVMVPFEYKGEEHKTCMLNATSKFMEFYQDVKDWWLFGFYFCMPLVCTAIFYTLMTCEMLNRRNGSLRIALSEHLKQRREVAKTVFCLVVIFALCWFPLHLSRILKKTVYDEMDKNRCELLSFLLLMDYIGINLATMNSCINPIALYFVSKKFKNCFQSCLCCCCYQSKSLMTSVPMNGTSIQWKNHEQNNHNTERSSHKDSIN
Experimental: Assay of Affinity for Receptor (1) . . . Binding Activity on ETA Receptor
A membrane fraction prepared from the porcine heart was diluted to 0.15 mg/ml by using a buffer solution for assay, and 100 μl of the resulting suspension of the membrane fraction was poured into each assay tube to use for assay. To this suspension of the membrane fraction was added 2 μl of 5 nM ^125 I-labeled endothelin-1 solution. Further, 3 μl of a test peptide solution was added thereto, followed by incubation at a temperature of 25° C. for 1 hour. Then, the resulting suspension was diluted with 900 μl of the buffer solution for assay cooled with ice, and thereafter separated into a supernatant and a precipitate by centrifugation at 12,000×g for 10 minutes. Cell membranes and an endothelin receptor A (ETA) embedded therein were contained in the precipitate, and radioactive iodine-labeled endothelin combined with the receptor was also recovered in the precipitate. Accordingly, the amount of radioactive iodine-labeled endothelin combined with the endothelin receptor A (ETA) was determined by measuring the amount of radioactive iodine contained in the precipitate with a gamma-ray counter. The cyclic pentapeptide described in Japanese Patent Application No. 2-413828/1990, cyclo[-D-Glu-Ala-D-aIle-Leu-D-Trp-], was used as a control compound. The numerical value of ETA shown in Table 1 is the value of specific activity, taking the binding activity of this cyclic pentapeptide on the receptor A as 1.0. The binding activity (IC50) of this cyclic pentapeptide on the ETA receptor is 2×10^-6 M.

[2] = tested on: ETB receptor (guinea pig kidney crude receptor membrane fraction); assay: ETB Radio Receptor Assay *2; type: binding; conditions: relative activity (Example 8 given as 100), 125I-endothelin-1, 37° C., 90 minutes
Experimental: ETB Radio Receptor Assay *2
In the endothelin radio receptor assay, guinea pigs' kidneys were used. Guinea pigs (Std Hartrey, male 250 g, Japan SLC Ltd.) were made to have a cerebral concussion and sacrificed by bleeding from carotid arteries to pick up the kidneys and removed fat therefrom to prepare the kidneys. The obtained kidneys were sliced and homogenized by politron homogenizer in 20 ml of 50 mM Tris-HCl buffer [pH 7.4; 20 mM NaHCO3, 0.1 mM PMSF (Phenylmethylsulfonyl Fluoride), 1 mM EDTA (Ethylenediaminetetraacetic acid)] per one kidney. The homogenized kidney was applied to a centrifugation at 1,000×g for 15 minutes and the supernatant was further applied to a centrifugation for 20 minutes at 30,000×g. The resulting precipitate was twice washed with 50 mM Tris-HCl buffer (pH 7.4) containing 0.1 mM PMSF, 1 mM EDTA. The resultant was stored at -80 ° C. as a crude receptor membrane fraction and was used as the suspension in the following buffer when necessary.
740 Bq of ^125 I-endothelin-1 (81.4 TBq/mmol, Du Pont, USA) as a radio ligand, the crude membrane fraction (2.1 μg protein) and samples were added to the following buffer. The reaction was performed at 37° C., for 90 minutes in 0.2 ml of the buffer [50 mM Tris-HCl buffer (pH 7.4) containing 0.1 mM PMSF, 1 mM EDTA, 0.2% bovine serum albumin].
The reaction was stopped by fast filtration on a glass filter (GF/B, Wattman, USA) by Cell Harvestor (290 PHD, Cambridge-Technology, Great Britain), and the filter was three times washed with 50 mM Tris-HCl buffer (pH 7.4). Radio activity remained on the filter was assayed by a gamma counter.

Molecule | Binding Activity on ET Receptor (R. act.) ETA [1] | Binding Activity on ET Receptor (R. act.) ET8 *2 [2]
CC(C)C[C@@H]1NC(=O)[C@@H](CC(C)C)NC(=O)[C@H](CC(=O)O)NC(=O)[C@H](CCCNC(=O)Cc2c[nH]c3ccccc23)NC(=O)[C@@H](CC(=O)O)NC(=O)[C@@H](Cc2c[nH]c3ccccc23)NC1=O [Example 82, cyclo[-D-Asp-Orn(COCH2 -Ind)-Asp-D-Leu-Leu-D-Trp-]] (cyclo(D[dL]L[dW][dD][Orn](X3))) | 240 | 500
Cyclo[--D--Asp--D,L-Tic--Asp--D--Leu--Leu--D--Trp--] [Example 86] | 38 | 240
CC(C)C[C@@H]1NC(=O)[C@@H](CC(C)C)NC(=O)[C@H](CC(=O)O)NC(=O)[C@H](CCCNC(=O)Cc2ccccc2)NC(=O)[C@@H](CC(=O)O)NC(=O)[C@@H](Cc2c[nH]c3ccccc23)NC1=O [Example 80, cyclo[-D-Asp-Orn(COCH2 Ph)-AsP-D-Leu-Leu-D-Trp-]] (cyclo(D[dL]L[dW][dD][Orn](PhAc))) | 260 | 380
CC(C)C[C@@H]1NC(=O)[C@@H](CC(C)C)NC(=O)[C@H](CC(=O)O)NC(=O)[C@H](Cc2ccccc2)NC(=O)[C@@H](CC(=O)O)NC(=O)[C@@H](Cc2c[nH]c3ccccc23)NC1=O [Example 19, Cyclo[--D--Asp--Phe--Asp--D--Leu--Leu--D--Trp--]] (cyclo(D[dL]L[dW][dD]F)) | 8.3 | 7.1
CC(C)C[C@@H]1NC(=O)[C@@H](CC(C)C)NC(=O)[C@H](CC(=O)O)NC(=O)CN(C)C(=O)[C@@H](CC(=O)O)NC(=O)[C@@H](Cc2c[nH]c3ccccc23)NC1=O [Example 46, Cyclo[--D--Asp--Sar--Asp--D--Leu--Leu--D--Trp--]] (cyclo(D[dL]L[dW][dD][Sar])) | 8.1 | 75
CC(C)C[C@@H]1NC(=O)[C@H](CC(=O)O)NC(=O)[C@@H](CC(=O)O)NC(=O)[C@@H](Cc2c[nH]c3ccccc23)NC(=O)[C@H](CC(C)C)NC(=O)[C@@H](CC(C)C)NC1=O [Example 32, Cyclo[--D--Asp--Asp--Leu--D--Leu--Leu--D--Trp--]] (cyclo(DL[dL]L[dW][dD])) | 4.0 | 7.7
CC(C)C[C@@H]1NC(=O)[C@@H](CC(C)C)NC(=O)[C@H]2CCCN2C(=O)[C@H](CC(=O)O)NC(=O)[C@@H](CC(=O)O)NC(=O)[C@@H](Cc2c[nH]c3ccccc23)NC1=O [Example 31, Cyclo[--D--Asp--Asp--D--Pro--D--Leu--Leu--D--Trp--]] (cyclo(D[dP][dL]L[dW][dD])) | 2.6 | 1.0
CC(C)C[C@@H]1NC(=O)[C@@H](C(C)(C)C)NC(=O)[C@H](CC(=O)O)NC(=O)[C@H](Cc2c[nH]c3ccccc23)NC(=O)[C@@H](CC(=O)O)NC(=O)[C@@H](Cc2c[nH]c3ccccc23)NC1=O [Example 53, cyclo[-D-Asp-Trp-Asp-D-tLeu-Leu-D-Trp-]] (cyclo(D[dTle]L[dW][dD]W)) | 64 | 460
CC(C)C[C@@H]1NC(=O)[C@@H](CC(C)C)NC(=O)[C@H](CC(=O)O)NC(=O)[C@H](C(C)C)NC(=O)[C@@H](CC(=O)O)NC(=O)[C@@H](Cc2c[nH]c3ccccc23)NC1=O [Example 17, Cyclo[--D--Asp--Val--Asp--D--Leu--Leu--D--Trp--]] (cyclo(D[dL]L[dW][dD]V)) | 3.7 | 22
CC(C)C[C@@H]1NC(=O)[C@@H](CC(C)C)NC(=O)[C@H](Cc2c[nH]c3ccccc23)NC(=O)[C@H](CC(=O)O)NC(=O)[C@@H](CC(=O)O)NC(=O)[C@@H](Cc2c[nH]c3ccccc23)NC1=O [Example 33, Cyclo[--D--Asp--Asp--Trp--D--Leu--Leu--D--Trp--]] (cyclo(DW[dL]L[dW][dD])) | 2.9 | 5.6
CC(C)C[C@@H]1NC(=O)[C@@H](CC(C)C)NC(=O)[C@H](CC(=O)O)NC(=O)[C@H](Cc2c[nH]c3ccccc23)N(C)C(=O)[C@@H](CC(=O)O)NC(=O)[C@@H](Cc2c[nH]c3ccccc23)NC1=O [Example 67, Cyclo[--D--Asp--N--MeTrp--Asp--D--Leu--Leu--D--Trp--]] (cyclo(D[dL]L[dW][dD][NMeW])) | 9.1 | 30
CC(C)C[C@@H]1NC(=O)[C@@H](CC(C)C)NC(=O)[C@H](CC(=O)O)NC(=O)[C@H](CC(C)C)NC(=O)[C@@H](CC(=O)O)NC(=O)[C@@H](Cc2c[nH]c3ccccc23)NC1=O [Example 18, Cyclo[--D--Asp--Leu--Asp--D--Leu--Leu--D--Trp--]] (cyclo(D[dL]L[dW][dD]L)) | 13 | 2.2

Results, then the molecule that gave them:

Binding Activity on ET Receptor (R. act.) ETA [1] | Binding Activity on ET Receptor (R. act.) ET8 *2 [2] | Molecule
4.4 | 9.1 | CC(C)C[C@@H]1NC(=O)[C@@H](CC(C)C)NC(=O)[C@@H]2CCCN2C(=O)[C@H](CC(=O)O)NC(=O)[C@@H](CC(=O)O)NC(=O)[C@@H](Cc2c[nH]c3ccccc23)NC1=O [Example 30, Cyclo[--D--Asp--Asp--Pro--D--Leu--Leu--D--Trp--]] (cyclo(DP[dL]L[dW][dD]))
6.8 | 17 | CC(C)C[C@@H]1NC(=O)[C@@H](CC(C)C)NC(=O)[C@H](CC(=O)O)NC(=O)[C@H](CC(C)C)N(C)C(=O)[C@@H](CC(=O)O)NC(=O)[C@@H](Cc2c[nH]c3ccccc23)NC1=O [Example 47, Cyclo[--D--Asp--N--MeLeu--Asp--D--Leu--Leu--D--Trp--]] (cyclo(D[dL]L[dW][dD][NMeL]))
110 | 330 | CC(C)C[C@@H]1NC(=O)[C@@H](CC(C)C)NC(=O)[C@H](CC(=O)O)NC(=O)[C@H](Cc2c[nH]c3ccccc23)NC(=O)[C@@H](CC(=O)O)NC(=O)[C@@H](Cc2cn(C)c3ccccc23)NC1=O [Example 95, Cyclo[--D--Asp--Trp--Asp--D--Leu--Leu--D--Trp(Me)--]]
1.7 | – | CC(C)C[C@@H]1NC(=O)[C@@H](CC(C)C)NC(=O)[C@H](CC(=O)O)NC(=O)[C@H]2CCCN2C(=O)[C@@H](CC(=O)O)NC(=O)[C@@H](Cc2c[nH]c3ccccc23)NC1=O [Example 24, Cyclo[--D--Asp--D--Pro--Asp--D--Leu--Leu--D--Trp--]] (cyclo(D[dL]L[dW][dD][dP]))
2.7 | 13 | CC(C)C[C@@H]1NC(=O)[C@@H](CC(C)C)NC(=O)[C@H](CC(=O)O)NC(=O)[C@H](Cc2ccccc2)N(C)C(=O)[C@@H](CC(=O)O)NC(=O)[C@@H](Cc2c[nH]c3ccccc23)NC1=O [Example 48, Cyclo[--D--Asp--N--MePhe--Asp--D--Leu--Leu--D--Trp--]] (cyclo(D[dL]L[dW][dD][NMeF]))
